Tests used:
Assay type in all cases: in vivo
[1] = test system: SREBP-1c; assay: SREBP-1c expression in liver by qPCR, ovariectomized obesity model; conditions: liver mRNA, qPCR in comparison with β-actin; mice with removed ovaries; bacteria 1×10^9 CFU orally, PC 10 μg/kg/day intraperitoneally; Nor 1.0 ± 0.1, Con 4.5 ± 0.5
Procedure: (§1) An experiment was performed by using six C57BL/6 mice (female, 21-23 g and 6 weeks old) per group after being acclimated in a laboratory for one week as described above in (1) of Example 2. After the mice were anesthetized with isoflurane and the ovaries were removed therefrom, the resulting mice were raised for six weeks so as to create an animal model with obesity, showing a significant weight gain. From one week after ovarian removal, Lactobacillus plantarum NK3, Bifidobacterium longum NK49, a 1:1 mixture thereof, or a 4:1 mixture thereof, which is a novel lactic acid bacterium, was orally administered in a daily amount of 1×10^9 CFU for six days a week for five weeks. In addition, 17β-estradiol (PC) was intraperitoneally administered at 10 μg/kg/day to the experimental animals of the positive control group, and the sham group and the experimental group with removed ovaries were orally dosed with physiological saline solution instead of drugs. […] The body weight was measured once a week. An expression of sterol regulatory element-binding transcription factor 1c (SREBP-1c) and peroxisome proliferator-activated receptor gamma coactivator 1-alpha (PGC-1α) was measured by using a quantitative reverse transcription polymerase chain reaction (qPCR). […] The amount of final expressed genes was calculated in comparison with β-actin.

[2] = test system: animal model with osteoporosis (C57BL/6 mice with removed ovaries); assay: Osteoporosis indices in blood (AP activity, Ca, P, osteocalcin) of ovariectomized mice; conditions: bacteria 1×10^9 CFU orally for five weeks
Procedure: An experiment was performed by using six C57BL/6 mice (female, 21-23 g and 6 weeks old) per group after being acclimated in a laboratory for one week. After the mice were anesthetized with isoflurane, the ovaries were removed therefrom to create an animal model with osteoporosis. From one week after ovarian removal, Lactobacillus plantarum NK3, Bifidobacterium longum NK49, a 1:1 mixture thereof, or a 4:1 mixture thereof (a ratio of LP:BL is 4:1 and the same as below), which is a novel lactic acid bacterium, was orally administered in a daily amount of 1×10^9 CFU for six days a week for five weeks. In addition, 17β-estradiol (PC) was intraperitoneally administered at 10 μg/kg/day to the experimental animals of the positive control group, and the sham group and the experimental group with removed ovaries were orally dosed with physiological saline solution instead of drugs.
On the day after the administration of lactic acid bacteria was completed, the experimental animals were sacrificed, and then blood, thighbone, colon, womb, and liver were separated therefrom so as to measure osteoporosis indices.
Osteocalcin in blood was measured with R&D system ELISA Kit (Minneapolis, Minn., USA); Ca and P were measured with ASAN Ca-Lq Reagents and ASAN Pi-Lq Reagents of Asan Pharmaceutical Co., Ltd, respectively; and alkaline phosphatase (AP) activity was measured with Alkaline phosphatase activity colorimetric assay kit (Sigma, USA).

[3] = test system: PGC-1α; assay: PGC-1α expression in liver by qPCR, ovariectomized obesity model; conditions: liver mRNA, qPCR in comparison with β-actin; mice with removed ovaries; bacteria 1×10^9 CFU orally, PC 10 μg/kg/day intraperitoneally; Nor 1.0 ± 0.1, Con 0.6 ± 0.2
Procedure: as §1

C[C@]12CC[C@@H]3c4ccc(O)cc4CC[C@H]3[C@@H]1CC[C@@H]2O [PC, 17β-estradiol]
SREBP-1c expression [1]: 2.7 ± 0.3 | Osteocalcin in blood ([2]; PC 10 μg/kg/day intraperitoneally, Con 1.85 ± 0.32): 1.53 ± 0.15 µg/L | Ca in blood ([2]; PC 10 μg/kg/day intraperitoneally, Con 6.4 ± 0.4): 6.2 ± 0.2 mg/dL | P in blood ([2]; PC 10 μg/kg/day intraperitoneally, Con 12.5 ± 1.5): 12.1 ± 1.1 mg/dL | AP (alkaline phosphatase activity in blood) ([2]; PC 17β-estradiol 10 μg/kg/day intraperitoneally, Con 282.2 ± 10.3): 220.6 ± 10.3 IU/L | PGC-1α expression [3]: 0.8 ± 0.2

From patent publication US20230181657A1, “NOVEL LACTIC ACID BACTERIA AND USE THEREOF” (UNIVERSITY- INDUSTRY COOPERATION GROUP OF KYUNG HEE …, priority 2018, published 2023)
